Our source for the IC50 values is ChEMBL document CHEMBL1126852 (J Med Chem, 1993).

A value given as a limit tells only on which side of the number the result lay.

The target in assay [1] is T1, Dihydrofolate reductase (Rattus norvegicus, UniProt Q920D2).
T1 sequence (Q920D2 whole entry): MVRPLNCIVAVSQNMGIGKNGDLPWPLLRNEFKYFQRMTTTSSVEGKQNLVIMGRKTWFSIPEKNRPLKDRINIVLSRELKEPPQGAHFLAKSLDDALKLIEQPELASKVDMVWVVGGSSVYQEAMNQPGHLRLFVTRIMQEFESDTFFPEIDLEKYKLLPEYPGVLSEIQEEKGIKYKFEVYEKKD
Description: Inhibition of rat liver dihydrofolate reductase.

The test system of assay [2] is CCRF-CEM. As to the kind of experiment: Tested for cell growth inhibition in CCRF-CEM lymphoblasts. The format is functional, cell-based. The following applies: Homo sapiens.
The target of assay [3] is Dihydrofolate reductase (Lactobacillus casei, UniProt P00381). As to the kind of experiment: Tested for inhibitory activity against dihydrofolate reductase in Lactobacillus casei. More on the design: species or system Lacticaseibacillus casei.
Chain of Dihydrofolate reductase (Lactobacillus casei, UniProt P00381) (P00381 whole entry): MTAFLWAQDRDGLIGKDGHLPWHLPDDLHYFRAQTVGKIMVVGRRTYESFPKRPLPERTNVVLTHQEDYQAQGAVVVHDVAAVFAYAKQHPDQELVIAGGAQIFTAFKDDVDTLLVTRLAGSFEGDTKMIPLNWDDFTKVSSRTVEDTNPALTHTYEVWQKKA
Assay [4] addresses T2, Dihydrofolate reductase (Homo sapiens, UniProt P00374).
T2 sequence (P00374 whole entry): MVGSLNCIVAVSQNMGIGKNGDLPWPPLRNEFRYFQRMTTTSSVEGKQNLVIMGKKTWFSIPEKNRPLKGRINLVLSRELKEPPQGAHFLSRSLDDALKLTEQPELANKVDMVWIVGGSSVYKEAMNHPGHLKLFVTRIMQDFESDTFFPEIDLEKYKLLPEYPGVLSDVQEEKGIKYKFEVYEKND
As to the kind of experiment: Tested for inhibitory activity against dihydrofolate reductase in human.

Assay [5] concerns the target T3, Dihydrofolate reductase (Pneumocystis carinii, UniProt P16184).
T3 sequence (P16184 whole entry): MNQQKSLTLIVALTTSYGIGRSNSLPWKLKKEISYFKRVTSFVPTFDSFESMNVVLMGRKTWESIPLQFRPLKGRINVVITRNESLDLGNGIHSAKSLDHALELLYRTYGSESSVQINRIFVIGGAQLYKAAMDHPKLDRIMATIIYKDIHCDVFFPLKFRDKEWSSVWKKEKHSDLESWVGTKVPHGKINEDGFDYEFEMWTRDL
Put plainly: Tested for inhibitory activity against dihydrofolate reductase in pneumocystis carinii.

Assay [6] addresses T4, Bifunctional dihydrofolate reductase-thymidylate synthase (Toxoplasma gondii, UniProt Q07422).
T4 sequence (Q07422 whole entry): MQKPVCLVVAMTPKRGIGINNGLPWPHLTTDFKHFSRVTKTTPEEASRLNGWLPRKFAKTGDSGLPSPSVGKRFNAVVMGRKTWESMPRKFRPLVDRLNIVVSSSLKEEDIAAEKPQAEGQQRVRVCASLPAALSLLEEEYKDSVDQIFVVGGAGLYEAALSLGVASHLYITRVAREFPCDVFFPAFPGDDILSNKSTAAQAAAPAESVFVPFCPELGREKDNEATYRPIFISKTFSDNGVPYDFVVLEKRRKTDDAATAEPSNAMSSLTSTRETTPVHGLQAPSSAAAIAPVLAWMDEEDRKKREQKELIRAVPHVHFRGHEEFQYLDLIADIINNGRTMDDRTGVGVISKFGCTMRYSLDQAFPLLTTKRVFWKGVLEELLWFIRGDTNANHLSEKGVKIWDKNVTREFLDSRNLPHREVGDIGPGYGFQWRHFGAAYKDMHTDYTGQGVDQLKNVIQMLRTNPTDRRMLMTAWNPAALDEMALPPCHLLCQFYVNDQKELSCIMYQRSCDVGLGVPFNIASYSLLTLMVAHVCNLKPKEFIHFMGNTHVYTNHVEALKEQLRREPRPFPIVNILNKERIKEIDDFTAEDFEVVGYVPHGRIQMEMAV
Put plainly: Tested for inhibitory activity against dihydrofolate reductase in Toxoplasma gondii.

Consider `Cc1c(Cc2ccccc2)sc2nc(N)nc(N)c12`, for which the results for the concentration for half-maximal inhibition (IC50) in assay [1], in assay [2] and in assay [3] were 14 µM, 15 µM and 1.3 µM, respectively. On to `Cc1c(-c2ccccc2)sc2nc(N)nc(N)c12`, for which the half-inhibitory concentration (IC50) in assay [2] was 14 µM. For the compound `COc1ccc(OC)c(-c2sc3nc(N)nc(N)c3c2C)c1`, the half-maximal inhibitory concentration (IC50) in assay [1] amounted to 0.37 µM; in assay [4], 0.75 µM. In assay [1], `Nc1nc(N)c2c3c(sc2n1)CCCC3` had an IC50 of 3.9 µM. As for `Cc1sc2nc(N)nc(N)c2c1Cc1ccccc1`, the IC50 in assay [1] is over 37 µM; in assay [3], over 50 µM. As for `Nc1nc(N)c2c3c(sc2n1)CN(Cc1ccccc1)CC3`, the IC50 was 0.57 µM in assay [1], 5.2 µM in assay [5] and 0.85 µM in assay [6]. As to `COc1cc(CCc2sc3nc(N)nc(N)c3c2C)cc(OC)c1OC`, the figures for the IC50 in assay [1] and in assay [4] were 25 µM and over 10 µM, respectively. Taken in the same sequence, the figures for `COc1ccc(OC)c(Cc2sc3nc(N)nc(N)c3c2C)c1` were 0.4 µM and 0.73 µM. `Nc1nc(N)c2c3c(sc2n1)CCCCC3` came in with a half-maximal inhibitory concentration (IC50) in assay [1] of 1.3 µM. That is a single-digit micromolar value. On to `Nc1nc(N)c2c3c(sc2n1)CCCCCCCCCC3`, for which the IC50 came out at 9.3 µM in assay [1], 3.7 µM in assay [2] and 12 µM in assay [3]. Take `COc1cc(-c2sc3nc(N)nc(N)c3c2C)cc(OC)c1OC`: the IC50 in assay [1] is 1.8 µM; in assay [4], over 10 µM. In the case of `Cc1c(-c2ccc(Cl)c(Cl)c2)sc2nc(N)nc(N)c12`, the IC50 was found to be 4.6 µM in assay [1] and 2 µM in assay [3].

In the case of `Nc1nc(N)c2c3c(sc2n1)CCCCCC3`, in assay [2], the IC50 was 12 µM. As for `Cc1sc2nc(N)nc(N)c2c1-c1ccc(Cl)cc1`, the IC50 is over 100 µM in assay [1] and over 50 µM in assay [3]. `COc1ccc(OC)c(CCc2sc3nc(N)nc(N)c3c2C)c1`: the values for the half-maximal inhibitory concentration (IC50) in assay [1] and in assay [4] were 5.9 µM and over 10 µM, respectively. Taken in the same sequence, the figures for `COc1cc(Cc2sc3nc(N)nc(N)c3c2C)cc(OC)c1OC` were 51 µM and over 10 µM.

In assay [1], `COc1ccc(OC)c(CCCc2csc3nc(N)nc(N)c23)c1` came in with an IC50 of 26 µM. Same read-out and setting: the same measure for `COc1ccc(OC)c(CCc2csc3nc(N)nc(N)c23)c1`: 3.1 µM.

One may read the IC50 as the point on the concentration scale where inhibition reaches its midpoint. Higher therefore signals weaker potency in that assay.
